The subject of test [1] is K. pneumonaie strain in clinical urine sample BIUR0084. The experiment in a line: Automated MultiPath AST cartridge on clinical urine sample. Type of test: cell-based. The following applies: clinical urine sample BIUR0084 (K. pneumoniae); 2 antibiotic concentrations; 4 h growth; fold growth value of 2.
For the next test, the system named is P. aeruginosa. The following applies: cited from earlier work.

Where two headings read alike, the source gives them in different places.

For `Cc1nnc(SCC2=C(C(=O)O)N3C(=O)[C@@H](NC(=O)Cn4cnnn4)[C@H]3SC2)s1` [Cefazolin], the “sensitive/resistant call by MulitPath” value in test [1] was “resistant”.

As to Trimethoprim/Sulfamethoxazole, in test [1], the “sensitive/resistant call by MulitPath” value is “resistant”. In addition, the “previously determined antibiotic resistance” value with P. aeruginosa (P. aeruginosa ATCC 27853), in the test on P. aeruginosa (P. aeruginosa CDC0105), in the test on P. aeruginosa (P. aeruginosa CDC0111), with P. aeruginosa (P. aeruginosa CDC0232), in the test with P. aeruginosa (P. aeruginosa CDC0242) and in the test with P. aeruginosa (P. aeruginosa CDC0247) was “Intrinsically” in each case. In addition, the “previously determined antibiotic resistance” value in the test on P. aeruginosa (P. aeruginosa CDC0251), in the test on P. aeruginosa (P. aeruginosa CDC0253), in the test with P. aeruginosa (P. aeruginosa CDC0259), with P. aeruginosa (P. aeruginosa CDC0261) and in the test on P. aeruginosa (P. aeruginosa CDC0262) was “Intrinsically” throughout.

Source of the values: patent US20210349082A1, “ANALYSIS INSTRUMENT” (First Light Diagnostics, Inc., priority 2018, published 2021).
